Biological target: FKBP12 (Homo sapiens, UniProt P62942)
Test: FKBP12 Binding Assay: inhibition of FKBP rotomase activity (cis-N-succinyl-Ala-Ala-Pro-Phe-p-nitroanilide / chymotrypsin), apparent Ki
Assay type: biochemical
Settings: Table 2, formula II', compound 0.1 nM-10 μM
From the text: Preferably, the assay measures inhibition of FKBP12 rotomase activity. Such an assay has also been described by M. W. Harding et al., supra and by J. J. Siekierka et al., supra. In this assay the isomerization of an artificial substrate--N-succinyl-Ala-Ala-Pro-Phe-p-nitroanilide--is followed spectrophotometrically. The assay includes the cis form of the substrate, FKBP12, the inhibitor and chymotrypsin. Chymotrypsin is able to cleave p-nitroanilide from the trans form of the substrate, but not the cis form. Release of p-nitroanilide is measured.
In this assay various quantities of FKBP12 binding compound (0.1 nM-10 μM) were added to cis-N-succinyl-Ala-Ala-Pro-Phe-p-nitroanilide in the presence of FKBP12 and chymotrypsin. FKBP12 converts the cis form of the substrate to the trans form. This allows chymotrypsin to cleave p-nitroanilide from the substrate. Release of p-nitroanilide was measured spectrophotometrically.

Sequence of FKBP12 (P62942 whole entry): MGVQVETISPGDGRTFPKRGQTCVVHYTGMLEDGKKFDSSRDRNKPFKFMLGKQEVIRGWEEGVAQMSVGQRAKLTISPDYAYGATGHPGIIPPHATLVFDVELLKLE

| SMILES | Ki [nM] |
| --- | --- |
| COc1ccc(C(=O)C(=O)N2CCCC[C@H]2C(=O)OC(CCCc2ccccc2)c2cccc(C(=O)c3ccncc3)c2)cc1C/C=C/c1ccccc1 (some centres unmarked) [compound 98] | 380 |
| COc1cc(C(=O)C(=O)N2CCCC[C@H]2C(=O)OC(C)c2cc(OCc3ccsc3)c(OCc3ccsc3)c(OCc3ccsc3)c2)cc(OC)c1OC (some centres unmarked) [compound 82] | > 5000 |
| COc1cc(C(=O)C(=O)N2CCC[C@H]2C(=O)OC(C)c2cc(OCc3ccncc3)c(OCc3ccncc3)c(OCc3ccncc3)c2)cc(OC)c1OC (some centres unmarked) [compound 87] | 360 |
| COc1cc(C(=O)C(=O)N2CCCC[C@H]2C(=O)OC(CCCc2ccccc2)c2cccc(C(=O)c3cccnc3)c2)cc(OC)c1OC (some centres unmarked) [compound 91] | 24 |
| COc1cc(C(=O)C(=O)N2CCCC[C@H]2C(=O)OC(CCCc2ccccc2)CCC(C)c2ccccc2)cc(OC)c1OC (some centres unmarked) [compound 32] | 20 |
| COc1cc(C(=O)C(=O)N2CCCC[C@H]2C(=O)OC(CCCc2ccccc2)CCCn2cnc3cncnc32)cc(OC)c1OC (some centres unmarked) [compound 25] | 2.2 |
| COc1cc(C(=O)C(=O)N2CCCC[C@H]2C(=O)OC(CCCc2ccccc2)CCCc2cccc(C(=O)NCc3ccccc3)c2)cc(OC)c1OC (some centres unmarked) [compound 59] | 40 |
| COc1cc(C(=O)C(=O)N2CCCC[C@H]2C(=O)OC(C)c2cc(OCc3ccccc3)cc(OCc3ccccc3)c2)cc(OC)c1OC (some centres unmarked) [compound 49] | 3400 |
| COc1cc(C(=O)C(=O)N2CCCC[C@H]2C(=O)OC(CCCc2ccccc2)CCCn2ccc3cccnc32)cc(OC)c1OC (some centres unmarked) [compound 23] | 9 |
| C=CCOc1ccccc1C(CCCc1ccccc1)OC(=O)[C@@H]1CCCCN1C(=O)C(=O)c1cc(OC)c(OC)c(OC)c1 (some centres unmarked) [compound 34] | 150 |
| C=CCOCCCCC(CCCc1ccccc1)OC(=O)[C@@H]1CCCCN1C(=O)C(=O)c1cc(OC)c(OC)c(OC)c1 (some centres unmarked) [compound 45] | 7 |
| C=CCOc1cc(C(=O)C(=O)N2CCCC[C@H]2C(=O)OC(CCCc2ccccc2)c2cccc(C(=O)c3ccncc3)c2)ccc1OC (some centres unmarked) [compound 97] | 17 |
| CCC(OC(=O)[C@@H]1CCCCN1C(=O)C(=O)c1cc(OC)c(OC)c(OC)c1)c1cc(OCc2ccncc2)c(OCc2ccncc2)c(OCc2ccncc2)c1 (some centres unmarked) [compound 74] | 18 |
| COc1cc(C(=O)C(=O)N2CCCC[C@H]2C(=O)OC(c2ccccc2)c2cccc(Oc3ccccc3)c2)cc(OC)c1OC (some centres unmarked) [compound 5] | 4000 |
| COc1cc(C(=O)C(=O)N2CCCC[C@H]2C(=O)OC(CCCc2ccccc2)c2cccc(OCc3ccncc3)c2)cc(OC)c1OC (some centres unmarked) [compound 64] | 1.4 |
| C=CCC(OC(=O)[C@@H]1CCCCN1C(=O)C(=O)c1cc(OC)c(OC)c(OC)c1)c1cc(OCc2ccncc2)c(OCc2ccncc2)c(OCc2ccncc2)c1 (some centres unmarked) [compound 76] | 14 |
| COc1cc(C(=O)C(=O)N2CCCC[C@H]2C(=O)OC(CCCc2ccccc2)CCCc2ccc(C(=O)N3CCN(Cc4ccccc4)CC3)cc2)cc(OC)c1OC (some centres unmarked) [compound 58] | 30 |
| COc1ccc(C(=O)C(=O)N2CCCC[C@H]2C(=O)OC(CCCc2ccccc2)c2ccc(C(=O)c3ccncc3)cc2)cc1OCc1ccccc1 (some centres unmarked) [compound 100] | > 5000 |
| C=CC(OC(=O)[C@@H]1CCCCN1C(=O)C(=O)c1cc(OC)c(OC)c(OC)c1)c1cc(OCc2ccncc2)c(OCc2ccncc2)c(OCc2ccncc2)c1 (some centres unmarked) [compound 79] | 2.3 |
| COc1cc(C(=O)C(=O)N2CCCC[C@H]2C(=O)OC(CCCc2ccccc2)CCCc2ccc(C(=O)Nc3ccccn3)cc2)cc(OC)c1OC (some centres unmarked) [compound 60] | 2 |
